Source: US11141452B2, “Bifunctional compounds for relief of pain comprising an opioid receptor agonist moiety and a NK1 receptor antagonist moiety and methods for treating pain” (THE ARIZONA BOARD OF REGENTS ON BEHALF OF THE UNIVERSITY OF …, priority 2014, dated 2021)
Where “and” joins values, the source holds several entries; their conditions need not be identical. Equal entries are not always repeated. Non-standard residues stand in square brackets, D forms with d. Residues, ends and D or L forms follow the SMILES beside them. *: point of attachment. NH(3,5-(CF3)2-benzyl) = FC(F)(F)c1cc(CN*)cc(C(F)(F)F)c1; NMeBn(3,5-(CF3)2) = CN(Cc1cc(C(F)(F)F)cc(C(F)(F)F)c1)*; Dmt = Cc1cc(O)cc(C)c1C[C@H](N)C(=O)O; NMeF = CN[C@@H](Cc1ccccc1)C(=O)O; Orn = NCCC[C@H](N)C(=O)O

What was measured:
MOR [1] = assay: Radioligand binding assay at μ opioid receptor; conditions: for Log[IC50±] (μ): log IC50 ± error; for Ki^μ/Ki^δ: ratio of binding affinities MOR/DOR
Protocol: (§1) Binding affinities of these ligands were measured on radioligand binding assays. […] ([43]).

hNK1 = molecular target: T1, hNK1 (Homo sapiens, UniProt P25103); assay: hNK1/CHO cell membrane radioligand binding assay ([3H]SP); conditions: for Ki: Ki^hNK1 (nM), hNK1/CHO membranes, [3H]SP; for Ki^hNK1/Ki^rNK1: ratio human/rat NK1
T1 construct: expressed in transfected cells; host or cells: CHO
T1 sequence (P25103 whole entry): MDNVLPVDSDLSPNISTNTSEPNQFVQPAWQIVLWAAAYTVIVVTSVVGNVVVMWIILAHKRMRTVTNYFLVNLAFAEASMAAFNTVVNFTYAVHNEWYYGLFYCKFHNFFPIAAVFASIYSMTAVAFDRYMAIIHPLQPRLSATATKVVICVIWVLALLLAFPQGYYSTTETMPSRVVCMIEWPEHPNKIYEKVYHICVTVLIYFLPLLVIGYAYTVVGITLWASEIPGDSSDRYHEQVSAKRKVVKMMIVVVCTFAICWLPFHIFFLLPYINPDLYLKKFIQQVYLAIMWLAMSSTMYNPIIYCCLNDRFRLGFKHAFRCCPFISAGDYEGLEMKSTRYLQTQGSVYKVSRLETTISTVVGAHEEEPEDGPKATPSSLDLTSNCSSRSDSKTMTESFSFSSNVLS

DOR = DOR (Homo sapiens, UniProt P41143); assay: Radioligand binding assay at δ opioid receptor; conditions: for Ki: Ki^δ (nM)
Sequence of DOR (P41143 whole entry): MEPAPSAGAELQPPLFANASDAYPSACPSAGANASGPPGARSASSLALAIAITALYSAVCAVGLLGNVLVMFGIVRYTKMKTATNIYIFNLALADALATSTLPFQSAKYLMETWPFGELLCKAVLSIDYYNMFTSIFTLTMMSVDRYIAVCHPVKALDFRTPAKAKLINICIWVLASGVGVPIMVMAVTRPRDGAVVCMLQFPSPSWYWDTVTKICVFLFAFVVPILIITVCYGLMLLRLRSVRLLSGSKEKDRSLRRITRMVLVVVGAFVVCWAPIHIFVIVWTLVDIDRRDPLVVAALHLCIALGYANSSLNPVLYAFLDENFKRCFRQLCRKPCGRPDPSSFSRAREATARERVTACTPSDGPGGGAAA
Protocol: as §1

NK1R = molecular target: T2, NK1R (Cavia porcellus, UniProt P30547); assay: GPI/LMMP functional assay at NK1R (agonist and antagonist testing); type: cell-based, guinea pig
T2 construct: The longitudinal muscle with myenteric plexus (LMMP) was carefully separated from the circular muscle; from tissue; host or cells: guinea pig ileum longitudinal muscle with myenteric plexus
T2 sequence (P30547 whole entry): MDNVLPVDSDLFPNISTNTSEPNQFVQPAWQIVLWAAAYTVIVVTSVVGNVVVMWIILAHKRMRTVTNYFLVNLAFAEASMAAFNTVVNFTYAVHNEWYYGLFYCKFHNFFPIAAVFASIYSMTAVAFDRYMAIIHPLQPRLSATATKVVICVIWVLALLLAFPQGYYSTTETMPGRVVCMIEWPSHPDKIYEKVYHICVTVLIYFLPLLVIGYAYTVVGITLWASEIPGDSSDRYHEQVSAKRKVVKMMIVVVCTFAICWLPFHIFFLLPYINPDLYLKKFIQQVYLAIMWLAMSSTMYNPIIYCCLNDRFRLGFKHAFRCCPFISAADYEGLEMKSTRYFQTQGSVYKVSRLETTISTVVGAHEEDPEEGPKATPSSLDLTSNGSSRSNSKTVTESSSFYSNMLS

MOR [2] = assay: Guinea pig isolated ileum (GPI) functional assay; type: cell-based; conditions: for IC50: agonist activity, electrically stimulated tissue, read-out: GPI (MOR) IC50

## CC(C)C[C@H](NC(=O)[C@@H]1CCCN1C(=O)[C@@H](CCC(N)=O)NC(=O)[C@H](Cc1ccccc1)NC(=O)CNC(=O)[C@@H](C)NC(=O)[C@@H](N)Cc1ccc(O)cc1)C(=O)N[C@@H](Cc1c[nH]c2ccccc12)C(=O)NCc1cc(C(F)(F)F)cc(C(F)(F)F)c1 [AKG103]
MOR [1]
  Ki: 120 nM and 116 nM
  Log[IC50±] (μ): −6.57 ± 0.05
hNK1
  Ki: 2.1 nM
DOR
  IC50: 155 nM
  Ki: 72 nM

## CSCC[C@H](NC(=O)[C@H](Cc1ccccc1)N(C)C(=O)CNC(=O)[C@@H](C)NC(=O)[C@@H](N)Cc1ccc(O)cc1)C(=O)N1CCC[C@H]1C(=O)N[C@@H](CC(C)C)C(=O)N[C@@H](Cc1c[nH]c2ccccc12)C(=O)NCc1cc(C(F)(F)F)cc(C(F)(F)F)c1 [AKG106]
hNK1
  Ki^hNK1/Ki^rNK1: 1/7

## CSCC[C@H](NC(=O)[C@H](Cc1ccccc1)N(C)C(=O)CNC(=O)[C@@H](C)NC(=O)[C@@H](N)Cc1c(C)cc(O)cc1C)C(=O)N1CCC[C@H]1C(=O)N[C@@H](CC(C)C)C(=O)N[C@@H](Cc1c[nH]c2ccccc12)C(=O)NCc1cc(C(F)(F)F)cc(C(F)(F)F)c1 [AKG107]
hNK1
  Ki^hNK1/Ki^rNK1: 1/7

## Cc1cc(O)cc(C)c1C[C@H](N)C(=O)N[C@H](C)C(=O)N[C@@H](Cc1ccccc1)C(=O)NCC(=O)N[C@@H](Cc1ccc(O)cc1)C(=O)N1CCC[C@H]1C(=O)N[C@@H](CC(C)C)C(=O)N[C@@H](Cc1c[nH]c2ccccc12)C(=O)NCc1cc(C(F)(F)F)cc(C(F)(F)F)c1 [AKG118] (H-[Dmt][dA]FGYPLW-{NH(3,5-(CF3)2-benzyl)})
MOR [1]
  Ki: 1 nM
  Log[IC50±] (μ): −8.65 ± 0.12
  Ki^μ/Ki^δ: 1/3
hNK1
  Ki^hNK1/Ki^rNK1: 1/11

## CC(C)C[C@H](NC(=O)[C@@H]1CCCN1C(=O)[C@H](CCC(N)=O)NC(=O)[C@H](Cc1ccccc1)N(C)C(=O)CNC(=O)[C@@H](C)NC(=O)[C@@H](N)Cc1ccc(O)cc1)C(=O)N[C@@H](Cc1c[nH]c2ccccc12)C(=O)NCc1cc(C(F)(F)F)cc(C(F)(F)F)c1 [AKG129]
MOR [1]
  Ki: 7 nM
  Log[IC50±] (μ): −7.84 ± 0.11

## Cc1cc(O)cc(C)c1C[C@H](N)C(=O)N[C@H](C)C(=O)NCC(=O)N(C)[C@@H](Cc1ccccc1)C(=O)N[C@@H](CCC(N)=O)C(=O)N1CCC[C@H]1C(=O)N[C@@H](CC(C)C)C(=O)N[C@@H](Cc1c[nH]c2ccccc12)C(=O)NCc1cc(C(F)(F)F)cc(C(F)(F)F)c1 [AKG141]
hNK1
  Ki^hNK1/Ki^rNK1: 1/10

## CC(C)C[C@H](NC(=O)[C@@H]1CCCN1C(=O)[C@H](CCC(N)=O)NC(=O)[C@H](Cc1ccc(F)cc1)NC(=O)CNC(=O)[C@@H](C)NC(=O)[C@@H](N)Cc1ccc(O)cc1)C(=O)N[C@@H](Cc1c[nH]c2ccccc12)C(=O)NCc1cc(C(F)(F)F)cc(C(F)(F)F)c1 [AKG142]
MOR [1]
  Ki: 8 nM
  Log[IC50±] (μ): −7.67 ± 0.07
DOR
  IC50: 3.39 nM
  Ki: 2 nM

## CC(C)C[C@H](NC(=O)[C@@H]1CCCN1C(=O)[C@H](CCC(N)=O)NC(=O)[C@H](Cc1ccc(F)cc1)N(C)C(=O)CNC(=O)[C@@H](C)NC(=O)[C@@H](N)Cc1ccc(O)cc1)C(=O)N[C@@H](Cc1c[nH]c2ccccc12)C(=O)NCc1cc(C(F)(F)F)cc(C(F)(F)F)c1 [AKG143]
MOR [1]
  Ki: 2 nM
  Log[IC50±] (μ): −8.35 ± 0.07
hNK1
  Ki: 3.2 nM
DOR
  IC50: 1.45 nM
  Ki: 0.7 nM

## Cc1cc(O)cc(C)c1C[C@H](N)C(=O)N[C@H](C)C(=O)NCC(=O)N(C)[C@@H](Cc1ccc(F)cc1)C(=O)N[C@@H](CCC(N)=O)C(=O)N1CCC[C@H]1C(=O)N[C@@H](CC(C)C)C(=O)N[C@@H](Cc1c[nH]c2ccccc12)C(=O)NCc1cc(C(F)(F)F)cc(C(F)(F)F)c1 [AKG144]
MOR [1]
  Ki: 0.5 nM
  Log[IC50±] (μ): −8.94 ± 0.07
DOR
  IC50: 0.437 nM
  Ki: 0.2 nM

## CC(C)C[C@H](NC(=O)[C@@H]1CCCN1C(=O)[C@H](CCCN)NC(=O)[C@H](Cc1ccccc1)N(C)C(=O)CNC(=O)[C@@H](C)NC(=O)[C@@H](N)Cc1ccc(O)cc1)C(=O)N[C@@H](Cc1c[nH]c2ccccc12)C(=O)NCc1cc(C(F)(F)F)cc(C(F)(F)F)c1 [AKG173] (H-Y[dA]G[NMeF][Orn]PLW-{NH(3,5-(CF3)2-benzyl)})
MOR [1]
  Ki: 5 nM
  Log[IC50±] (μ): −7.95 ± 0.08
  Ki^μ/Ki^δ: 100/1
hNK1
  Ki: 15.5 nM
DOR
  IC50: 501 nM
  binding selectivity for DOR over MOR: 100 times
  Ki: 0.05 nM

## CC(C)C[C@H](NC(=O)[C@@H]1CCCN1C(=O)[C@H](CCCCN)NC(=O)[C@H](Cc1ccccc1)N(C)C(=O)CNC(=O)[C@@H](C)NC(=O)[C@@H](N)Cc1ccc(O)cc1)C(=O)N[C@@H](Cc1c[nH]c2ccccc12)C(=O)NCc1cc(C(F)(F)F)cc(C(F)(F)F)c1 [AKG174] (H-Y[dA]G[NMeF]KPLW-{NH(3,5-(CF3)2-benzyl)}; N-terminus assumed)
MOR [1]
  Ki: 8 nM
  Log[IC50±] (μ): −7.81 ± 0.08

## Cc1cc(O)cc(C)c1C[C@H](N)C(=O)N[C@H](C)C(=O)N(C)CC(=O)N[C@@H](Cc1ccccc1)C(=O)N1CCC[C@H]1C(=O)N[C@@H](CC(C)C)C(=O)N[C@@H](Cc1c[nH]c2ccccc12)C(=O)NCc1cc(C(F)(F)F)cc(C(F)(F)F)c1 [AKG180, H-Dmt-D-Ala-NMeGly-Phe-Pro-Leu-Trp-NH-Bn(3′,5′-(CF3)2)]
hNK1
  Ki^hNK1/Ki^rNK1: 1/6

## Cc1cc(O)cc(C)c1C[C@H](N)C(=O)N(C)[C@H](C)C(=O)NCC(=O)N[C@@H](Cc1ccccc1)C(=O)N1CCC[C@H]1C(=O)N[C@@H](CC(C)C)C(=O)N[C@@H](Cc1c[nH]c2ccccc12)C(=O)NCc1cc(C(F)(F)F)cc(C(F)(F)F)c1 [AKG181, H-Dmt-D-NMeAla-Gly-Phe-Pro-Leu-Trp-NH-Bn(3′,5′-(CF3)2)]
hNK1
  Ki^hNK1/Ki^rNK1: 1/5

## Cc1cc(O)cc(C)c1C[C@H](N)C(=O)N(C)[C@H](C)C(=O)N(C)CC(=O)N[C@@H](Cc1ccccc1)C(=O)N1CCC[C@H]1C(=O)N[C@@H](CC(C)C)C(=O)N[C@@H](Cc1c[nH]c2ccccc12)C(=O)NCc1cc(C(F)(F)F)cc(C(F)(F)F)c1 [AKG183, H-Dmt-D-NMeAla-NMeGly-Phe-Pro-Leu-Trp-NH-Bn(3′,5′-(CF3)2)]
hNK1
  Ki^hNK1/Ki^rNK1: 1/7

## Cc1cc(O)cc(C)c1C[C@H](N)C(=O)N(C)[C@H](C)C(=O)NCC(=O)N(C)[C@@H](Cc1ccccc1)C(=O)N1CCC[C@H]1C(=O)N[C@@H](CC(C)C)C(=O)N[C@@H](Cc1c[nH]c2ccccc12)C(=O)NCc1cc(C(F)(F)F)cc(C(F)(F)F)c1 [AKG184, H-Dmt-D-NMeAla-Gly-NMePhe-Pro-Leu-Trp-NH-Bn(3′,5′-(CF3)2)]
hNK1
  Ki^hNK1/Ki^rNK1: 1/40

## Cc1cc(O)cc(C)c1C[C@H](N)C(=O)N(C)[C@H](C)C(=O)N(C)CC(=O)N(C)[C@@H](Cc1ccccc1)C(=O)N1CCC[C@H]1C(=O)N[C@@H](CC(C)C)C(=O)N[C@@H](Cc1c[nH]c2ccccc12)C(=O)NCc1cc(C(F)(F)F)cc(C(F)(F)F)c1 [AKG185, H-Dmt-D-NMeAla-NMeGly-NMePhe-Pro-Leu-Trp-NH-Bn(3′,5′-(CF3)2)]
hNK1
  Ki^hNK1/Ki^rNK1: 1/21

## Cc1cc(O)cc(C)c1C[C@H](N)C(=O)N[C@H](C)C(=O)NCC(=O)N[C@@H](Cc1ccc(Br)cc1)C(=O)N1CCC[C@H]1C(=O)N[C@@H](CC(C)C)C(=O)N[C@@H](Cc1c[nH]c2ccccc12)C(=O)NCc1cc(C(F)(F)F)cc(C(F)(F)F)c1 [AKG192, H-Dmt-D-Ala-Gly-Phe(4-Br)-Pro-Leu-Trp-NH-Bn(3′,5′-(CF3)2)]
NK1R; GPI/LMMP (NK1R) Ke (nM) ± S.E.M., antagonist activity
  Kb: 23.4 ± 8.9 nM
MOR [2]
  IC50: 463 ± 114 nM
MOR [1]
  Ki: 5 nM
  Log[IC50±] (μ): −7.96 ± 0.12

## Cc1cc(O)cc(C)c1C[C@H](N)C(=O)N[C@H](C)C(=O)NCC(=O)N[C@@H](Cc1ccc(I)cc1)C(=O)N1CCC[C@H]1C(=O)N[C@@H](CC(C)C)C(=O)N[C@@H](Cc1c[nH]c2ccccc12)C(=O)NCc1cc(C(F)(F)F)cc(C(F)(F)F)c1 [AKG193, H-Dmt-D-Ala-Gly-Phe(4-I)-Pro-Leu-Trp-NH-Bn(3′,5′-(CF3)2)]
MOR [2]; at 1 uM
  GPI (MOR) % at 1 uM: 41% at 1 uM
MOR [1]
  Ki: 6 nM
  Log[IC50±] (μ): −7.88 ± 0.07

## CC(C)C[C@H](NC(=O)[C@@H]1CCCN1C(=O)[C@H](Cc1ccccc1)N(C)C(=O)[C@H](Cc1ccccc1)NC(=O)[C@@H]1CCCN1C(=O)[C@@H](N)Cc1ccc(O)cc1)C(=O)N[C@@H](Cc1c[nH]c2ccccc12)C(=O)NCc1cc(C(F)(F)F)cc(C(F)(F)F)c1 [AKG224, H-Tyr-Pro-Phe-NMePhe-Pro-Leu-Trp-NH-Bn(3′,5′-(CF3)2)] (H-YPF[NMeF]PLW-{NH(3,5-(CF3)2-benzyl)})
hNK1
  Ki^hNK1/Ki^rNK1: 1/10

## CC(C)C[C@H](NC(=O)[C@@H]1CCCN1C(=O)[C@H](Cc1ccc(O)cc1)NC(=O)CNC(=O)[C@H](Cc1ccccc1)NC(=O)[C@@H](C)NC(=O)[C@@H](N)Cc1ccc(O)cc1)C(=O)N[C@@H](Cc1c[nH]c2ccccc12)C(=O)N(C)Cc1cc(C(F)(F)F)cc(C(F)(F)F)c1 [QXP04] (H-Y[dA]FGYPLW-{NMeBn(3,5-(CF3)2)})
NK1R; agonist activity at the concentration in the cell
  GPI/LMMP (NK1R) Agonist: None at 1 uM
MOR [2]
  GPI/MVD IC50 ratio: 23/1
  IC50: 389 ± 180 nM
MOR [1]
  Ki: 10 nM
  Log[IC50±] (μ): −7.66 ± 0.05
  Ki^μ/Ki^δ: 1/7
